This note sets out measurements from patent US20260347319A1, “YAP/TAZ-TEAD ONCOPROTEINS INHIBITORS” (BridGene Biosciences, Inc., priority 2022, published 2026).

Holding throughout (assay type): cell-based
One experiment concerns H2052 cells. Nature of the experiment: Cell proliferation and viability assay (CPA) in H2052 cells. Conditions: for IC50: Homo sapiens, NCI-H2052, read-out: CPA H2052 IC50 Ave. On the procedure:
Compound potency and efficacy in inhibiting cell proliferation and viability was assessed in multiple cell lines. For example, NCI-H226 cells (ATCC #CRL-5826) were seeded at 2000 cells in 200 μL medium per well of a 96-well plate (Corning #3610) and incubated at 37° C. for 24 hours, then treated with serial diluted compounds for up to 6 d. Viable cells were measured by CellTiter-Glo 2.0 Cell Viability Assay (Promega #G9243), and the luminescence signal was read using an EnSight Multimode plate reader (PerkinElmer, model 9MLDHH34000000, integration time 100 ms) with Kaleido 3.0. software. For data analysis, dose-dependent curves were plotted as “inhibition” (% of DMSO-treated control wells), and were fitted by four-parametric model in GraphPad Prism to obtain IC50 values.
Alternatively, cells were plated at 2000 cells in 200 μL medium per well of a 96-well plate (Corning #3585) overnight, treated with compound for 7 days, cell density images taken by Incycte S3 live cell analysis instrument (Sartorius) every 24 hours at the same time. Images were analyzed by Incucyte's AI-driven software to get C “% confluence” for every image. Dose-dependent curves were plotted as “% inhibition” (% o of DMSO-treated control wells) and were fitted by four-parametric model in GraphPad Prism to obtain IC50 values.

In another experiment the test system is TEAD1. In words: MCF-7 TEAD1-luciferase reporter assay (MCF7-TEAD-Luc). Conditions: MCF7 cells, overnight; for IC50: Homo sapiens; for TEAD1-Luc MCF7: Max Inhibition: % of DMSO-treated control. How it is done: The ability of compounds to inhibit TEAD-dependent transcription was assessed in the MCF7-TEAD-Luc reporter assay (BPS #60618). Cells were seeded at 10,000 cells in 200 μL per well into white wall, clear bottom 96-well plates (Corning #3610) and incubated at 37° C. for 24 hours, then treated with serial diluted compounds overnight, and luciferase signal was measured using the ONE-Step Luciferase Assay System (BPS #60690) using an EnSight Multimode plate reader (PerkinElmer, model #MLDHH34000000, integration time 100 ms) with Kaleido 3.0. software. For data analysis, dose-dependent curves were plotted as “% inhibition” (% of DMSO-treated control wells), and were fitted by four-parametric model in GraphPad Prism to obtain IC50 values.
On the technique in general: A reporter such as luciferase makes a cellular process visible.

A further experiment concerns NCI-H226 cells. In words: Cell proliferation and viability assay (CPA) in NCI-H226 cells. Conditions: up to 6 d. How it is done: Compound potency and efficacy in inhibiting cell proliferation and viability was assessed in multiple cell lines. For example, NCI-H226 cells (ATCC #CRL-5826) were seeded at 2000 cells in 200 μL medium per well of a 96-well plate (Corning #3610) and incubated at 37° C. for 24 hours, then treated with serial diluted compounds for up to 6 d. Viable cells were measured by CellTiter-Glo 2.0 Cell Viability Assay (Promega #G9243), and the luminescence signal was read using an EnSight Multimode plate reader (PerkinElmer, model 9MLDHH34000000, integration time 100 ms) with Kaleido 3.0. software. For data analysis, dose-dependent curves were plotted as “inhibition” (% of DMSO-treated control wells), and were fitted by four-parametric model in GraphPad Prism to obtain IC50 values. […]

As usually defined, the IC50 is the concentration needed to halve the response being measured.

In the case of `C=CC(=O)N1CC[C@](C#Cc2ccc(C(F)(F)F)cc2)(OC)C1` (single isomer, unassigned) [Example 59, (R*)-1-(3-methoxy-3-((4-(trifluoromethyl)phenyl)ethynyl)pyrrolidin-1-yl)prop-2-en-1-one], in the experiment with H2052 cells, the “CPA H2052 Max Inh Ave” value is recorded as “B (75% > B ≥ 50%)” and the IC50 fell in the range of 100 to 500 nM. In addition, in the experiment with TEAD1, the IC50 was in the range of 10 to 100 nM and the “TEAD1-Luc MCF7: Max Inhibition” value is listed as “A (A ≥ 75%)”. For the same compound, the IC50 with NCI-H226 cells (Homo sapiens, 144 h, read-out: CPA NCI-H226 IC50 Ave) was no more than 100 nM. The “CPA NCI-H226 Max Inh Ave” value in the experiment with NCI-H226 cells is on record as “A (A ≥ 75%)”.

Take `C=CC(=O)N1CC[C@@H](/C=C/c2ccc(C(F)(F)F)cc2)C1` [Example 9]: the IC50 in the experiment on H2052 cells was 100 to 500 nM; with TEAD1, 10 to 100 nM.

Take `C=CC(=O)N1CC(/C=C\c2cnc(C(F)(F)F)s2)C1` [Example 12]: the half-maximal inhibitory concentration (IC50) in the experiment on H2052 cells lay in the range of 100 to 500 nM; with TEAD1 it was 10 to 100 nM.

As to `C=CC(=O)N1CC(/C=C/c2cccc(C(F)(F)F)c2)C1` [Example 14], in the experiment with H2052 cells, the “CPA H2052 Max Inh Ave” value was “B (75% > B ≥ 50%)” and the IC50 is 100 to 500 nM. In the experiment with TEAD1, the IC50 is 10 to 100 nM and the “TEAD1-Luc MCF7: Max Inhibition” value was “B (75% > B ≥ 50%)”.

Consider `C=CC(=O)N1CCC(/C=C\c2cccc(C(F)(F)F)c2)CC1` [Example 55, (Z)-1-(4-(3-(trifluoromethyl)styryl)piperidin-1-yl)prop-2-en-1-one], for which, in the experiment on TEAD1, the 50% inhibitory concentration (IC50) is greater than 500 nM and the “TEAD1-Luc MCF7: Max Inhibition” value was “C (50% > C ≥ 2%)”.

As to `C=CC(=O)N1CC(/C=C/c2ccc(C(F)(F)F)cc2)C(n2cccn2)C1` (stereo not drawn) [Example 70], in the experiment with TEAD1, the half-maximal inhibitory concentration (IC50) was 10 to 100 nM and the “TEAD1-Luc MCF7: Max Inhibition” value is recorded as “A (A ≥ 75%)”.

For `C=CC(=O)N1CCC(C#Cc2ccc(C(F)(F)F)cc2)(OC)CC1` [Example 71, 1-(4-methoxy-4-((4-(trifluoromethyl)phenyl)ethynyl)piperidin-1-yl)prop-2-en-1-one], in the experiment with TEAD1, the IC50 lay within 10 to 100 nM and the “TEAD1-Luc MCF7: Max Inhibition” value is “B (75% > B ≥ 50%)”.

As for `C=CC(=O)N1CCC(F)(C#Cc2ccc(C(F)(F)F)cc2)CC1` [Example 72, 1-(4-fluoro-4-((4-(trifluoromethyl)phenyl)ethynyl)piperidin-1-yl)prop-2-en-1-one], in the experiment on TEAD1, the IC50 is 10 to 100 nM and the “TEAD1-Luc MCF7: Max Inhibition” value is on record as “B (75% > B ≥ 50%)”.

On to `C=CC(=O)N1CCC(O)(C#Cc2ccc(C(F)(F)F)cc2)CC1` [Example 73, 1-(4-hydroxy-4-((4-(trifluoromethyl)phenyl)ethynyl)piperidin-1-yl)prop-2-en-1-one], for which, in the experiment with TEAD1, the IC50 lay in the range of 10 to 100 nM and the “TEAD1-Luc MCF7: Max Inhibition” value was “A (A ≥ 75%)”.

On to `C=CC(=O)N1CCC(C)(C#Cc2ccc(C(F)(F)F)cc2)CC1` [Example 74, 1-(4-methyl-4-((4-(trifluoromethyl)phenyl)ethynyl)piperidin-1-yl)prop-2-en-1-one], for which, in the experiment with TEAD1, the IC50 was no more than 10 nM and the “TEAD1-Luc MCF7: Max Inhibition” value is recorded as “B (75% > B ≥ 50%)”.

For the compound `C=CC(=O)N1CCCC(C#Cc2cccc(C(F)(F)F)c2)C1` (stereo not drawn) [Example 75, 1-(3-((3-(trifluoromethyl)phenyl)ethynyl)piperidin-1-yl)prop-2-en-1-one], in the experiment on TEAD1, the IC50 fell in the range of 10 to 100 nM and the “TEAD1-Luc MCF7: Max Inhibition” value is “A (A ≥ 75%)”.

Turning to `C=CC(=O)N1CCCC(C#Cc2ccc(C(F)(F)F)cc2)C1` (stereo not drawn) [Example 76, 1-(3-((4-(trifluoromethyl)phenyl)ethynyl)piperidin-1-yl)prop-2-en-1-one], in the experiment on TEAD1, the IC50 was 10 to 100 nM and the “TEAD1-Luc MCF7: Max Inhibition” value was “A (A ≥ 75%)”.

As to `CC#CC(=O)N1CC(/C=C/c2ccc(C(F)(F)F)cc2)C1` [Example 77, (E)-1-(3-(4-(trifluoromethyl)styryl)azetidin-1-yl)but-2-yn-1-one], in the experiment on TEAD1, the concentration for half-maximal inhibition (IC50) was 10 to 100 nM and the “TEAD1-Luc MCF7: Max Inhibition” value is listed as “B (75% > B ≥ 50%)”.

Consider `C#CC(=O)N1CC(/C=C/c2ccc(C(F)(F)F)cc2)C1` [Example 78, (E)-1-(3-(4-(trifluoromethyl)styryl)azetidin-1-yl)prop-2-yn-1-one], for which, in the experiment with TEAD1, the 50% inhibitory concentration (IC50) was 100 to 500 nM and the “TEAD1-Luc MCF7: Max Inhibition” value was “A (A ≥ 75%)”.

With `C=CC(=O)N1CCC(C#Cc2cccc(C(F)(F)F)c2)CC1` [Example 79, 1-(4-((3-(trifluoromethyl)phenyl)ethynyl)piperidin-1-yl)prop-2-en-1-one], in the experiment on TEAD1, the IC50 lay within 10 to 100 nM and the “TEAD1-Luc MCF7: Max Inhibition” value is on record as “B (75% > B ≥ 50%)”.

`C=CC(=O)N1CCC(C#Cc2ccc(C(F)(F)F)cc2)CC1` [Example 80, 1-(4-((4-(trifluoromethyl)phenyl)ethynyl)piperidin-1-yl)prop-2-en-1-one]: in the experiment on TEAD1, the half-maximal inhibitory concentration (IC50) lay in the range of 10 to 100 nM and the “TEAD1-Luc MCF7: Max Inhibition” value is listed as “A (A ≥ 75%)”.

As to `CC#CC(=O)N1CC[C@H](/C=C/c2ccc(C(F)(F)F)cc2)C1` [Example 81, (R,E)-1-(3-(4-(trifluoromethyl)styryl)pyrrolidin-1-yl)but-2-yn-1-one], in the experiment on TEAD1, the 50% inhibitory concentration (IC50) fell in the range of 100 to 500 nM and the “TEAD1-Luc MCF7: Max Inhibition” value was “B (75% > B ≥ 50%)”.

Take `C#CC(=O)N1CC[C@H](/C=C/c2ccc(C(F)(F)F)cc2)C1` [Example 82, (R, E)-1-(3-(4-(trifluoromethyl)styryl)pyrrolidin-1-yl)prop-2-yn-1-one]: in the experiment on TEAD1, the IC50 was 10 to 100 nM and the “TEAD1-Luc MCF7: Max Inhibition” value was “A (A ≥ 75%)”.

In the case of `C=CC(=O)N1CC[C@H](C(C)(C)/C=C/c2ccc(C(F)(F)F)cc2)C1` [Example 86, (R, E)-1-(3-(2-methyl-4-(4-(trifluoromethyl)phenyl)but-3-en-2-yl)pyrrolidin-1-yl)prop-2-en-1-one], in the experiment with TEAD1, the concentration for half-maximal inhibition (IC50) fell in the range of 10 to 100 nM and the “TEAD1-Luc MCF7: Max Inhibition” value is reported as “B (75% > B ≥ 50%)”.

For the compound `C=CC(=O)N1CC[C@H](/C=C\c2ccc(C(F)(F)F)cc2)C1` [Example 87, (R, Z)-1-(3-(4-(trifluoromethyl)styryl)pyrrolidin-1-yl)prop-2-en-1-one], in the experiment on TEAD1, the IC50 was 100 to 500 nM and the “TEAD1-Luc MCF7: Max Inhibition” value is “B (75% > B ≥ 50%)”.

`C=CC(=O)N1CCC(C/C=C/c2ccc(C(F)(F)F)cc2)CC1` [Example 90, (E)-1-(4-(3-(4-(trifluoromethyl)phenyl)allyl)piperidin-1-yl)prop-2-en-1-one]: in the experiment on TEAD1, the IC50 lay within 10 to 100 nM and the “TEAD1-Luc MCF7: Max Inhibition” value is “B (75% > B ≥ 50%)”.

Regarding `C=CC(=O)N1CCC(/C=C/C(O)c2ccc(C(F)(F)F)cc2)C1` (stereo not drawn) [Example 99, (E)-1-(3-(3-hydroxy-3-(4-(trifluoromethyl)phenyl)prop-1-en-1-yl)pyrrolidin-1-yl)prop-2-en-1-one], in the experiment on TEAD1, the half-maximal inhibitory concentration (IC50) was 10 to 100 nM and the “TEAD1-Luc MCF7: Max Inhibition” value is “B (75% > B ≥ 50%)”.

Consider `C=CC(=O)N1CCC(/C=C\C(O)c2ccc(C(F)(F)F)cc2)C1` (stereo not drawn) [Example 100, (Z)-1-(3-(3-hydroxy-3-(4-(trifluoromethyl)phenyl)prop-1-en-1-yl)pyrrolidin-1-yl)prop-2-en-1-one], for which, in the experiment on TEAD1, the IC50 was in the range of 10 to 100 nM and the “TEAD1-Luc MCF7: Max Inhibition” value is “B (75% > B ≥ 50%)”.

As to `C=CC(=O)N1CCC(/C=C\C(OC)c2ccc(C(F)(F)F)cc2)C1` (stereo not drawn) [Example 101, (Z)-1-(3-(3-methoxy-3-(4-(trifluoromethyl)phenyl)prop-1-en-1-yl)pyrrolidin-1-yl)prop-2-en-1-one], in the experiment with TEAD1, the IC50 is 100 to 500 nM and the “TEAD1-Luc MCF7: Max Inhibition” value is “B (75% > B ≥ 50%)”.

Take `C=CC(=O)N1CCC(/C=C/C(OC)c2ccc(C(F)(F)F)cc2)C1` (stereo not drawn) [Example 102, (E)-1-(3-(3-methoxy-3-(4-(trifluoromethyl)phenyl)prop-1-en-1-yl)pyrrolidin-1-yl)prop-2-en-1-one]: in the experiment on TEAD1, the IC50 lay in the range of 10 to 100 nM and the “TEAD1-Luc MCF7: Max Inhibition” value is given as “C (50% > C ≥ 2%)”.

Regarding `C=CC(=O)N1CCC2(C=C(c3ccc(C(F)(F)F)cc3)OC2)C1` (stereo not drawn) [Example 105, 1-(3-(4-(trifluoromethyl)phenyl)-2-oxa-7-azaspiro[4.4]non-3-en-7-yl)prop-2-en-1-one], in the experiment with TEAD1, the IC50 was in the range of 10 to 100 nM and the “TEAD1-Luc MCF7: Max Inhibition” value is “A (A ≥ 75%)”.

On to `C=CC(=O)N1CCC2(CC(/C=C/c3ccc(C(F)(F)F)cc3)C2)C1` (stereo not drawn) [Example 106, (E)-1-(2-(4-(trifluoromethyl)styryl)-6-azaspiro[3.4]octan-6-yl)prop-2-en-1-one], for which, in the experiment with TEAD1, the half-inhibitory concentration (IC50) was in the range of 10 to 100 nM and the “TEAD1-Luc MCF7: Max Inhibition” value is on record as “B (75% > B ≥ 50%)”.
